Data reported in US20250376691A1, “FLOTATION OF CULTURED EMBRYO EXPLANTS FOR IMPROVED PLANT REGENERATION EFFICIENCY” (Monsanto Technology LLC, priority 2022, published 2025).

Tested on: corn seed excised explants
Experiment: Agrobacterium-mediated transformation and shoot/plant regeneration of corn seed excised explants (shoot frequency, normal shoot frequency, normal plant frequency)
Type: cell-based
Experimental: The shoot frequency was calculated as the number of inoculated explants producing shoots divided by the total number of inoculated explants.
The shoot frequency was calculated as the number of inoculated explants producing shoots divided by the total number of inoculated explants. […] The normal shoot frequency was calculated as the number of normal shoots divided by the total number of inoculated explants.

## O=C(O)COc1ccc(Cl)cc1Cl [2,4-D, 2,4-dichlorophenoxyacetic acid]
4 and 5 day co-culture combined
  average normal plant frequency when 2,4-D was present in co-culture medium: 0.73%
co-culture 4 days
  average normal plant frequency (%), 2,4-D Present in Co-Culture: 0.85%
co-culture 5 days
  average normal plant frequency (%), 2,4-D Present in Co-Culture: 0.5%
co-culture medium, 17 experiments
  Fold Increase in normal plant frequency without 2,4-D versus with 2,4-D, overall/average: 1.8
